The values that follow come from patent US12390437B2, “Itaconic acid derivatives and uses thereof intreating an inflammatory disease or a disease associated with an undesirable immune response” (Sitryx Therapeutics Limited, priority 2019, dated 2025).

pIC50: −log10 of the molar value. A value given as a limit tells only on which side of the number the result lay.

Data set [1] relates to hepatocytes. Put plainly: Hepatocyte stability assay (human). The class given is in vitro ADME. Conditions: 10 μM compound, 0.5×10^6 cells/mL, 60 minutes. The source says:
(§1) Defrosted cryo-preserved hepatocytes (viability >70%) are used to determine the metabolic stability of a compound via calculation of intrinsic clearance (Clint; a measure of the removal of a compound from the liver in the absence of blood flow and cell binding). Clearance data are particularly important for in vitro work as they can be used in combination with in vivo data to predict the half-life and oral bioavailability of a drug.
(§2) The metabolic stability in hepatocytes assay involves a time-dependent reaction using both positive and negative controls. The cells must be pre-incubated at 37° C. then spiked with test compound (and positive control); samples taken at pre-determined time intervals are analysed to monitor the change in concentration of the initial drug compound over 60 minutes. A buffer incubation reaction (with no hepatocytes present) acts as a negative control and two cocktail solutions, containing compounds with known high and low clearance values (verapamil/7-hydroxycoumarin and propranolol/diltiazem), act as positive controls. • 1. The assay is run with a cell concentration of 0.5×10^6 cells/mL in Leibovitz buffer. • 2. All compounds and controls are run in duplicate. • 3. Compound concentration is 10 μM. • 4. All compounds and controls are incubated with both cells and buffer to show turnover is due to hepatic metabolism. • 5. All wells on the incubation plate will have 326.7 μL of either cells or buffer added. • 6. Prior to assay, cell and buffer-only incubation plates are preincubated for 10 mins at 37° C. • 7. The assay is initiated by adding compounds, 3.3 μL of 1 mM in 10% DMSO-90% Buffer; final DMSO concentration is 0.1%. • 8. Samples are taken at regular timepoints (0, 5, 10, 20, 40, 60 min) until 60 mins. • 9. Sample volume is 40 μL and it is added to 160 μL of crash solvent (acetonitrile with internal standard) and stored on ice. • 10. At the end of the assay, the crash plates are centrifuged at 3500 rpm for 20 mins at 4° C. • 11. 80 μL of clear supernatant is removed and mixed with 80 μL of deionised water before being analysed by LC-MS/MS.
(§3) Raw LC-MS/MS data are exported to, and analysed in, Microsoft Excel for determination of intrinsic clearance. The percentage remaining of a compound is monitored using the peak area of the initial concentration as 100%. Intrinsic clearance and half-life values are calculated using a graph of the natural log of percentage remaining versus the time of reaction in minutes. Half-life (min) and intrinsic clearance (Clint in μL min^−1 10^−6 cells) values are calculated using the gradient of the graph (the elimination rate constant, k) and Equations 1 and 2.

Data set [2] can be described thus: Hepatocyte stability assay (human). Type of data set: in vitro ADME. Conditions: cryopreserved hepatocytes, 10 μM compound, 0.5×10^6 cells/mL, 60 minutes, read-out: T½.
From the text: as §1, §2, §3

In data set [3] the test system is IL-1β cytokine output from THP-1s. The data set is described as follows: THP-1 AlphaLISA IL-1β cytokine assay. The class given is cell-based, human. Conditions: Homo sapiens, THP-1, PMA-differentiated THP-1 cells, LPS 24 hr then Nigericin 1 hour; read-out: IL-1β (IC50). The essentials:
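PMA-differentiated THP-1 cells (72 h) were pre-incubated 30 min with compound, then LPS-primed 24 h and pulsed with nigericin for 1 h at 37 °C. Supernatant cytokine was quantified by AlphaLISA; % inhibition was normalised to +/−LPS plate controls and IC50 taken from concentration-response curves.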
A general note: Alpha assays give light when donor and acceptor beads are brought close together.

Data set [4] is described as follows: Mouse pharmacokinetic study, intravenous dosing. The class given is in vivo. Conditions: male, C57BL/6, mouse, iv, plasma, 10 mg/kg i.v., read-out: Parent compound concentration following intravenous administration. The protocol: Pharmacokinetic studies were carried out in 6-8-week-old male C57BL/6 mice having free access to food and water. Intravenous dosing was conducted at 10 mg/kg (5 mL/kg; vehicle: 10% DMSO-90% (25% HP-13-CD in water)) via tail vein injection, with sampling at 3 min, 8 min, 15 min, 30 min, 1, 2, 4, 6 and 8 hours, i.e., 9 time points in total (N=3/time point), using semi-serial bleeding for plasma. Oral compound administration, via gavage, was carried out at 100 mg/kg (10 mL/kg; vehicle: 5% DMSO-95% (0.5% HPMC+0.1% Tween 80 in water)), with sampling at 5 min, 15 min, 30 min, 1, 2, 4, 6, 8 and 24 hours, i.e., 9 time points in total (N=3/time point), using semi-serial bleeding for plasma.
For both intravenous and oral routes, the mice were restrained manually at the designated time points, with ca. 110 μL of blood being taken into K2EDTA tubes via the facial vein. Blood samples were put on ice and centrifuged to obtain plasma samples from which the concentration at each time point was measured by LC-MS/MS.

Data set [5] deals with hepatocytes. Put plainly: Hepatocyte stability assay (mouse). The class given is in vitro ADME. Conditions: 10 μM compound, 0.5×10^6 cells/mL, 60 minutes.
From the text: as §1, §2, §3

The nature of data set [6]: Hepatocyte stability assay (mouse). The class given is in vitro ADME. The following applies: cryopreserved hepatocytes, 10 μM compound, 0.5×10^6 cells/mL, 60 minutes, read-out: T½.
From the text: as §1, §2, §3

In data set [7] the test system is IL-1β cytokine output from isolated primary human monocytes. The data set is described as follows: Primary human monocyte AlphaLISA IL-1β cytokine assay. Type of data set: cell-based. Conditions: CD14+ primary human monocytes, LPS 24 hr then Nigericin 1 hour. The protocol: Measuring Inhibitory Effects on IL-1β and IL-6 Cytokine Output from Isolated Primary Human Monocytes
The cytokine inhibition profiles of compounds of formula (IW-1) were determined in a CD14^+ isolated primary human monocyte cell assay. All assays were performed in RPMI-1640 growth medium (Gibco), supplemented with heat-inactivated fetal bovine serum (FBS) and 1% penicillin-streptomycin unless specified otherwise. The IL-1β and IL-6 cytokine inhibition assays were each run in a background of isolated primary human monocyte cells as described below. All reagents described were from Sigma-Aldrich unless specified otherwise. Compounds were prepared as 100 mM DMSO stocks.
Primary peripheral blood mononuclear cells (PBMCs) were isolated from human whole blood. Following PBMC isolation, a CD14^+ monocyte isolation step was conducted whereby CD14^+ magnetic beads (Miltenyi Biotec) were incubated for 15 minutes with the PBMC suspension that was previously treated with ice cold T-cell isolation buffer (PBS, 0.5% BSA, 2 mM EDTA). Following bead incubation, the treated cell suspension was passed through a magnetic separation column designed to positively select for magnetically labelled cells. The isolated CD14^+ monocytes were subsequently plated at the appropriate cell density for the assay, prior to compound treatment on the day of plating. Working concentrations of compounds were prepared separately in RPMI-1640 only growth medium and pre-incubated with the cells for 30 minutes (37° C./5% CO2). Following the 30 minute compound pre-incubation, primary monocytes were treated with an appropriate concentration of LPS and subsequently incubated for a 24 hr period (37° C./5% CO2). An appropriate final concentration of Nigericin was then dispensed into the primary monocyte plates and incubated for 1 hour (37° C./5% CO2) before monocyte supernatants were harvested and collected in separate polypropylene 96-well holding plates prior to commencing the AlphaLISA cytokine assay.
Reagents from each of the IL-1β and IL-6 commercial kits (Perkin Elmer) were prepared and run according to the manufacturer's instructions. Subsequently, fluorescence signal was measured in a microplate reader (EnVision® Multilabel Reader, Perkin Elmer).
Percentage inhibition was calculated per cytokine by normalising the sample data to the high and low controls used within each plate (+/−LPS respectively). Percentage inhibition was then plotted against compound concentration and the 50% inhibitory concentration (IC50) was determined from the resultant concentration-response curve.

With `C=C(CC(=O)O[C@H]1C[C@H]2CC[C@]1(C)C2(C)C)C(=O)OCC(=O)O` [Example 179, 2-((2-methylene-4-oxo-4-(((1R,2S,4R)-1,7,7-trimethylbicyclo[2.2.1]heptan-2-yl)oxy)butanoyl)oxy)acetic acid], the “CIint (μL min^−1 10^−6 cells)” value is given as 13 μL min^−1 10^−6 cells in data set [1] and 129 μL min^−1 10^−6 cells in data set [5]. The values for the half-life at 10 μM in data set [2] and in data set [6] were 129 min and 13 min, respectively. Also, the pIC50 in data set [3] was 4.96. The concentration at 0.05 h in data set [4] (time 0.05 h) was determined as 17900 ng/mL. The concentration at 0.133 h in data set [4] (time 0.133 h) stood at 5320 ng/mL. In data set [4] (time 0.25 h), the concentration at 0.25 h was 1810 ng/mL. Moreover, the concentration at 0.5 h in data set [4] (time 0.5 h) is 456 ng/mL. The concentration at 1 h in data set [4] (time 1 h) amounted to 13 ng/mL. In addition, the concentration at 2 h in data set [4] (time 2 h) is less than 4 ng/mL. Besides, the concentration at 4 h in data set [4] (time 4 h) is less than 4 ng/mL. The concentration at 6 h in data set [4] (time 6 h) was less than 4 ng/mL. In addition, the concentration at 8 h in data set [4] (time 8 h) was less than 4 ng/mL.
In turn, `C=C(CC(=O)OCCCCCCCC)C(=O)O` [4-octyl itaconate, 4-Octyl itaconate, reference compound] showed a pIC50 in data set [7] of less than 4.00. Also, in data set [1], the “CIint (μL min^−1 10^−6 cells)” value worked out at 401 μL min^−1 10^−6 cells and the “T½” value is recorded as 4 min. In addition, in data set [5], the “CIint (μL min^−1 10^−6 cells)” value came to 351 μL min^−1 10^−6 cells and the “T½” value turned out to be 4 min.

The pIC50 is the IC50 on a negative log10 scale, so that one unit is a factor of ten.
